Drawing on ChEMBL document CHEMBL5052818, “Aminopyrimidine derivatives as ctps1 inhibitors” (2019), this text covers IC50 for 78 compounds.

A value given as a limit tells only on which side of the number the result lay.

The assay in a line: Inhibition of C-terminal FLAG-His-tagged full length human CTPS1 measured after 60 mins by ADP-Glo assay. (In general: ADP-Glo turns the ADP formed in a reaction into a luminescent signal.)

The IC50 is the concentration that inhibits the measured activity by half. A higher IC50 goes with lower potency. On to `O=C(Cc1nc(NS(=O)(=O)C2CC2)ncc1F)Nc1ccc(-c2cccnc2)cc1`, for which the IC50 is more than 1000 nM. For `CC(C)Oc1cncc(-c2ccc(NC(=O)Cc3ccnc(NS(=O)(=O)C4CC4)n3)cc2)n1`, the IC50 was not above 100 nM. For the compound `CC(C)Oc1cncc(-c2ccc(NC(=O)C(C)(C)c3ccnc(NS(C)(=O)=O)n3)c(F)c2)n1`, the IC50 is more than 100 nM. As for `CC(C)(C(=O)Nc1ccc(-c2cccc(Cl)c2)cc1)c1ccnc(NS(=O)(=O)C2CC2)n1`, the IC50 is more than 1000 nM. Under `CC(C)(C(=O)Nc1ccc(-c2cncc(C(F)(F)F)n2)cc1F)c1ccnc(NS(=O)(=O)C2CC2)n1` stands not above 100 nM; under `CCOc1cncc(-c2ccc(NC(=O)C(C)(C)c3ccnc(NS(=O)(=O)C4CC4)n3)c(OC)c2)n1`, not above 100 nM. For the compound `CC(C)(C(=O)Nc1ccc(-c2cncc(C#N)c2)cc1)c1ccnc(NS(=O)(=O)C2CC2)n1`, the IC50 was more than 100 nM. For `CCOc1cncc(-c2ccc(NC(=O)C(C)(C)c3ccnc(NS(=O)(=O)CC)n3)cc2)n1`, the IC50 is more than 100 nM. In turn, `CCOc1cccc(-c2ccc(NC(=O)C(C)(C)c3ccnc(NS(=O)(=O)C4CC4)n3)cc2)c1` returned an IC50 of more than 10000 nM. The value for `CC(C)Oc1cncc(-c2ccc(NC(=O)Cc3ccnc(NS(=O)(=O)C4CC4)n3)c(F)c2)n1` was not above 100 nM; that for `CC(C)(C(=O)Nc1ccc(-c2cccnc2)cc1)c1ccnc(NS(=O)(=O)C2CC2)n1` was more than 1000 nM; that for `CCOc1cncc(-c2ccc(NC(=O)C(C)(C)c3ccnc(NS(=O)(=O)CC)n3)c(F)c2)n1` was more than 100 nM. The compound `CCC(C(=O)Nc1ccc(-c2cncc(C(F)(F)F)c2)cc1)c1ccnc(NS(=O)(=O)C2CC2)n1` (stereo not drawn) showed an IC50 of more than 100 nM. Under `CCOc1cncc(-c2ccc(NC(=O)C(C)(C)c3ccnc(NS(=O)(=O)C4CCC4)n3)nc2)n1` stands more than 100 nM. `CCOc1cncc(-c2cnc(NC(=O)C(C)(C)c3ccnc(NS(C)(=O)=O)n3)c(F)c2)n1` yielded an IC50 of more than 100 nM. The value for `CCOc1cncc(-c2cnc(NC(=O)C(C)(C)c3ccnc(NS(=O)(=O)C4CC4)n3)c(F)c2)n1` was not above 100 nM; that for `CCOc1cncc(-c2ccc(NC(=O)C(C)(C)c3nc(NS(=O)(=O)C4CC4)ncc3F)cc2)n1` was more than 100 nM. `CCOc1cncc(-c2ccc(NC(=O)C(C)(C)c3ccnc(NS(=O)(=O)C4CC4)n3)c(Cl)c2)n1` came in with an IC50 not above 100 nM.

`CCOc1cncc(-c2cc(C)c(NC(=O)C(C)(C)c3ccnc(NS(=O)(=O)C4CC4)n3)cc2F)n1` showed an IC50 of more than 100 nM. `O=C(Cc1ccnc(NS(=O)(=O)C2CC2)n1)Nc1ccc(-c2cncc(C(F)(F)F)n2)cc1`: the IC50 was not above 100 nM. `CC(C)(C(=O)Nc1ccc(-c2cncc(F)c2)cc1)c1ccnc(NS(=O)(=O)C2CC2)n1` returned an IC50 of more than 100 nM.

In the case of `CCOc1cncc(-c2ccc(NC(=O)C(CC)(CC)c3ccnc(NS(=O)(=O)C4CC4)n3)cc2)n1`, the IC50 is not above 100 nM. `CC(C)(C(=O)Nc1ccc(-c2cccc(C(F)(F)F)c2)cc1)c1ccnc(NS(=O)(=O)C2CC2)n1` showed an IC50 of more than 1000 nM. With `CC(C)Oc1cncc(-c2ccc(NC(=O)C(C)(C)c3ccnc(NS(=O)(=O)C4CC4)n3)c(F)c2)c1`, the IC50 was more than 100 nM. `CC(C)Oc1cncc(-c2ccc(NC(=O)C(C)(C)c3ccnc(NS(C)(=O)=O)n3)c(F)c2)c1` had an IC50 of more than 1000 nM.

With `O=C(Cc1ccnc(NS(=O)(=O)C2CC2)n1)Nc1ccc(-c2cncc(C(F)(F)F)n2)cc1F`, the IC50 was not above 100 nM. For the compound `O=C(Cc1ccnc(NS(=O)(=O)C2CC2)n1)Nc1ccc(-c2cncc(OCC(F)(F)F)n2)cc1`, the IC50 was not above 100 nM.

Take `CC(C)(C(=O)Nc1ccc(-c2cncc(C(F)(F)F)c2)cc1)c1ccnc(NS(=O)(=O)C2CC2)n1`: the IC50 is more than 100 nM.

`CC(C)Oc1cncc(-c2ccc(NC(=O)C(C)(C)c3ccnc(NS(=O)(=O)C4CCC4)n3)c(F)c2)n1` came in with an IC50 of more than 100 nM. The compound `CCOc1cncc(-c2ccc(NC(=O)C(C)(C)c3nc(NS(=O)(=O)C4CC4)ncc3C)cc2)n1` came in with an IC50 of more than 1000 nM. For the compound `O=C(Cc1ccnc(NS(=O)(=O)C2CC2)n1)Nc1ccc(-c2cccnc2)cc1`, the IC50 is more than 100 nM.

`CC(C)(C(=O)Nc1ccc(-c2cccnc2)cn1)c1ccnc(NS(=O)(=O)C2CC2)n1` registered an IC50 of more than 1000 nM.

`COc1cncc(-c2ccc(NC(=O)C(C)(C)c3ccnc(NS(=O)(=O)C4CCC4)n3)cc2)n1` gave an IC50 of more than 100 nM. `COc1cncc(-c2ccc(NC(=O)Cc3ccnc(NS(=O)(=O)C4CC4)n3)cc2)n1`: the IC50 was not above 100 nM.

`CC(C)Oc1cncc(-c2ccc(NC(=O)C(C)(C)c3ccnc(NS(=O)(=O)C4CC4)n3)cc2)n1`: the IC50 was not above 100 nM. `CCOc1cncc(-c2ccc(NC(=O)C(C)(C)c3ccnc(NS(=O)(=O)C4CC4)n3)cc2)n1` showed an IC50 not above 100 nM. `CCOc1cncc(-c2cc(C)c(NC(=O)C(C)(C)c3ccnc(NS(=O)(=O)C4CC4)n3)cc2C)n1` returned a concentration for half-maximal inhibition (IC50) of more than 100 nM.

For `CCOc1cncc(-c2ccc(NC(=O)C(C)(C)c3ccnc(NS(=O)(=O)C4CCC4)n3)c(C)c2)n1`, the IC50 was more than 100 nM.

On to `CC(C)Oc1cncc(-c2ccc(NC(=O)C(C)(C)c3ccnc(NS(=O)(=O)C4CC4)n3)c(F)c2)n1`, for which the IC50 is not above 100 nM. Compound `CCOc1cncc(-c2ccc(NC(=O)C(C)(C)c3ccnc(NS(=O)(=O)C4CC4)n3)c(C#N)c2)n1` returned an IC50 not above 100 nM.

Consider `CC(C)(C(=O)Nc1ccc(-c2cncc(C(F)(F)F)n2)cc1)c1ccnc(NS(=O)(=O)C2CC2)n1`, for which the IC50 is not above 100 nM. With `O=C(Cc1ccnc(NS(=O)(=O)C2CC2)n1)Nc1ccc(-c2ccccc2)cc1`, the IC50 is more than 1000 nM. Under `CC(C)(C(=O)Nc1ccc(-c2cccc(C#N)c2)cc1)c1ccnc(NS(=O)(=O)C2CC2)n1` stands more than 1000 nM.

`CCOc1cncc(-c2ccc(NC(=O)C(C)(C)c3ccnc(NS(=O)(=O)C4CC4)n3)c(F)c2)n1` yielded a 50% inhibitory concentration (IC50) not above 100 nM. As to `CCOc1cncc(-c2ccc(NC(=O)C(C)(C)c3ccnc(NS(=O)(=O)C4CC4)n3)c(C)c2C)n1`, the IC50 is more than 100 nM. Turning to `CC(C)(C(=O)Nc1ccc(-c2cncnc2)cc1)c1ccnc(NS(=O)(=O)C2CC2)n1`, the IC50 was more than 1000 nM.

On to `CC(C)(C(=O)Nc1ccc(-c2cnccn2)cc1)c1ccnc(NS(=O)(=O)C2CC2)n1`, for which the IC50 was more than 1000 nM. The value for `CC(C)Oc1cncc(-c2ccc(NC(=O)C(C)(C)c3ccnc(NS(=O)(=O)C4CC4)n3)cc2)c1` was more than 100 nM; that for `O=C(Cc1ccnc(NS(=O)(=O)C2CC2)n1)Nc1ccc(-c2cncc(C(F)(F)F)c2)cc1` was more than 100 nM. As to `Cc1cncc(-c2ccc(NC(=O)C(C)(C)c3ccnc(NS(=O)(=O)C4CC4)n3)cc2)c1`, the IC50 is more than 100 nM. `CCOc1cncc(-c2cc(F)c(NC(=O)C(C)(C)c3ccnc(NS(=O)(=O)C4CC4)n3)c(F)c2)n1` yielded an IC50 not above 100 nM. `Cc1cncc(-c2ccc(NC(=O)C(C)(C)c3ccnc(NS(C)(=O)=O)n3)c(C)c2)n1` registered an IC50 of more than 1000 nM. With `CC(C)Oc1cncc(-c2ccc(NC(=O)C(C)(C)c3ccnc(NS(=O)(=O)C4CC4)n3)nc2)n1`, the IC50 was not above 100 nM.

As for `COc1cncc(-c2ccc(NC(=O)C(C)(C)c3ccnc(NS(=O)(=O)C4CC4)n3)cc2)n1`, the IC50 was not above 100 nM. The compound `CCOc1cncc(-c2ccc(NC(=O)C(C)(C)c3ccnc(NS(=O)(=O)C4CC4)n3)nc2)n1` displayed an IC50 not above 100 nM. Turning to `CC(C)(C(=O)Nc1ccc(-c2cncc(OC3CC3)n2)cn1)c1ccnc(NS(=O)(=O)C2CC2)n1`, the IC50 is not above 100 nM. Consider `CCOc1cncc(-c2ccc(NC(=O)C(C)(C)c3ccnc(NS(=O)(=O)C4CCC4)n3)cc2)n1`, for which the IC50 was more than 100 nM. Consider `CCOc1cncc(-c2ccc(NC(=O)C3(c4ccnc(NS(=O)(=O)C5CC5)n4)CCCC3)cc2)n1`, for which the IC50 was not above 100 nM.

Take `Cc1cc(-c2cncc(C(F)(F)F)n2)ccc1NC(=O)C(C)(C)c1ccnc(NS(=O)(=O)C2CC2)n1`: the IC50 was more than 100 nM. Under `CC(C)(C(=O)Nc1ccc(-c2cncc(OC3CC3)n2)cc1)c1ccnc(NS(=O)(=O)C2CC2)n1` stands more than 100 nM. On to `CC(C)(C(=O)Nc1ccc(-c2cncc(Cl)c2)cc1)c1ccnc(NS(=O)(=O)C2CC2)n1`, for which the IC50 is more than 100 nM. The compound `COc1cncc(-c2ccc(NC(=O)C(C)(C)c3ccnc(NS(=O)(=O)C4CC4)n3)cc2)c1` showed an IC50 of more than 100 nM.

`CCOc1cncc(-c2ccc(NC(=O)C(C)(C)c3ccnc(NS(=O)(=O)C4(C)CC4)n3)cc2)n1` returned an IC50 of more than 100 nM. Consider `CCOc1cncc(-c2cc(OC)c(NC(=O)C(C)(C)c3ccnc(NS(=O)(=O)C4CC4)n3)cc2F)n1`, for which the IC50 was more than 100 nM. Under `CCOc1cncc(-c2ccc(NC(=O)C(C)(C)c3ccnc(NS(=O)(=O)C4CC4)n3)cc2)c1` stands more than 100 nM; under `O=C(Cc1ccnc(NS(=O)(=O)C2CC2)n1)Nc1ccc(-c2cncc(OCC(F)(F)F)c2)cc1`, more than 100 nM.

For `CC(C)(C(=O)Nc1ccc(-c2cncc(C(F)(F)F)n2)cn1)c1ccnc(NS(=O)(=O)C2CC2)n1`, the IC50 was not above 100 nM.

Take `CCOc1cncc(-c2ccc(NC(=O)C(C)(C)c3ccnc(NS(C)(=O)=O)n3)nc2)n1`: the IC50 was more than 100 nM.

In the case of `CC(C)(C(=O)Nc1ccc(-c2cnccn2)cc1F)c1ccnc(NS(=O)(=O)C2CC2)n1`, the IC50 was more than 1000 nM. Under `CCOc1cncc(-c2ccc(NC(=O)Cc3ccnc(NS(=O)(=O)C4CC4)n3)cc2)n1` stands not above 100 nM. Compound `CCOc1cncc(-c2ccc(NC(=O)C(C)(C)c3ccnc(NS(=O)(=O)C4CC4)n3)c(OC(F)(F)F)c2)n1` had an IC50 not above 100 nM. The value for `CCC(C(=O)Nc1ccc(-c2cncc(Cl)c2)cc1)c1ccnc(NS(=O)(=O)C2CC2)n1` (stereo not drawn) was more than 100 nM; that for `CCC(C(=O)Nc1ccc(-c2cnccn2)cc1F)c1ccnc(NS(=O)(=O)C2CC2)n1` (stereo not drawn) was more than 100 nM. `CCOc1cncc(-c2ccc(NC(=O)C(C)(C)c3ccnc(NS(=O)(=O)C4CC4)n3)nc2)c1`: the IC50 was more than 100 nM. In turn, `CCOc1cncc(-c2cc(F)c(NC(=O)C(C)(C)c3ccnc(NS(=O)(=O)C4CC4)n3)cc2C)n1` displayed an IC50 of more than 100 nM. Under `CC(C)(C(=O)Nc1ccc(-c2cncc(OC(F)F)c2)cc1)c1ccnc(NS(=O)(=O)C2CC2)n1` stands not above 100 nM; under `CC(C)(C(=O)Nc1ccc(-c2cccnc2)cc1F)c1ccnc(NS(=O)(=O)C2CC2)n1`, more than 1000 nM.

In the case of `CCS(=O)(=O)Nc1nccc(C(C)(C)C(=O)Nc2ccc(-c3cncc(C(F)(F)F)n3)cc2)n1`, the IC50 was more than 100 nM.
